Measured values taken from patent US20240344145A1, “PHARMACOGENOMICS SCORE TO MAKE DECISIONS ON THERAPY AUGMENTATION IN AML” (University of Florida Research Foundation, Incorporated, priority 2021, published 2024).

System: pediatric AML patients
Assay: AML02 multicenter clinical trial, LDAC vs HDAC induction arms: MRD1, EFS and OS overall and by ACS10 score
Type: in vivo, human
Set-up: 3-year EFS / 4-year OS / 5-year OS / 4-year EFS / 5-year EFS / 3-year OS: unit not given here
Conditions: for Event-free Survival 5 years / Overall Survival 5 years: AML02 cohort
Procedure: One hundred and sixty-six pediatric AML patients treated under the multicenter AML02 clinical trial protocol were included in the study. Details of study design and clinical outcome have been described elsewhere. Briefly, patients with de novo AML were randomized to receive either high (3 g/m^2, given every 12 h on days 1, 3, and 5; this condition is designated “HDAC”) or low dose (100 mg/m^2 given every 12 h on days 1-10; this condition is designated “LDAC”) cytarabine along with daunorubicin (50 mg/m^2 on days 2, 4 and 6) and etoposide (100 mg/m^2 on days 2-6) as a first course of chemotherapy with subsequent treatment tailored to response and risk classification. For initial risk assignment, patients with cytogenetic translocations comprisingt [8;21] (e.g., translocation between chromosome 8 and 21), inv (16), ort [9;11] were classified as low-risk. Patients with features such as deletion of chromosome 7 (−7), presence of FLT3-ITD mutation (FLT-ITD), cytogenetic translocation comprisingt [6;9], megakaryoblastic leukemia (AMKL), treatment-related AML, or AML arising from MDS were classified as high-risk AML. Patients lacking any of the low or high-risk group features were provisionally classified as standard risk AML. Patient risk classifications were updated on the basis of minimal residual disease evaluations. Clinical endpoints used in this evaluation were defined as follows: i) Minimal residual disease after induction 1 (“MRD1”) (patients were defined as MRD positive if they had ≥1 leukemic cell per 1000 mononuclear bone marrow cells (≥0.1%); ii) Complete remission defined as trilineage hematopoietic recovery with less than 5% blasts in the marrow; iii) Event-free survival (“EFS”) defined as the time from study enrollment to induction failure, relapse, secondary malignancy, death, or study withdrawal for any reason, with event-free patients censored on the date of last follow-up; and iv) Overall survival (“OS”) defined as the time from study enrollment to death, with living patients censored on the date of last follow-up. St. Jude Institutional Review Board approved the study, and informed consent was obtained from parents/guardians and consents/assents from the individuals.
The association of MRD1, EFS, and OS was evaluated with ACS10 scores in the AML02 discovery cohort and the AAML0531 validation cohort. The Kaplan-Meier method was used to estimate the EFS and OS probabilities for well-defined groups of patients. Cox regression models were used to associate ACS10 with EFS and OS and used logistic regression models to associate ACS10 with MRD1. The Wilcoxon rank-sum test and Kruskal-Wallis test were used to compare medians of numeric variables across groups. Chi-square tests and Fisher's exact test were used to evaluate the association among pairs of categorical variables. All p-values are two-sided. All statistical analyses were performed using R software (www.r-project.org).
The multicenter AML02 clinical trial randomly assigned subjects to receive low dose ara-C (LDAC: 100 mg/m^2; n=91 patients) or high dose ara-C(HDAC: 3 g/m^2; n=75 patients) in combination with daunorubicin and etoposide as the first course of chemotherapy as described above in patient cohort section. Thus, the association of SNPs with outcome within each arm separately was also explored (Table 5).
Given patients in AML02 cohort were randomized to receive low or augmented high dose of ara-C, this unique opportunity was leveraged to evaluate performance of ACS10 score within the different ara-C dose treatment arms (of note LDAC and HDAC arms had similar distribution of patients across, disease characteristics, risk group, cytogenetics, race, gender etc. Table 3). […]

[1] = ACS10 score 0, risk-adjusted Cox model
[2] = ACS10 score 1, risk-adjusted Cox model
[3] = ACS10 score 2, risk-adjusted Cox model
[4] = ACS10 score 3, risk-adjusted Cox model
[5] = ACS10 score 4, risk-adjusted Cox model
[6] = ACS10 score 5, risk-adjusted Cox model
[7] = ACS10 score −1, risk-adjusted Cox model
[8] = ACS10 score −2, risk-adjusted Cox model
[9] = ACS10 score −3, risk-adjusted Cox model
[10] = ACS10 score −5, risk-adjusted Cox model
[11] = low ACS10 score (≤0) patients, AML02
[12] = number of patients per arm, after induction 1, AML02 cohort
[13] = patients with ACS10 score of +5, risk-adjusted Cox model
[14] = patients with ACS10 score of −5, risk-adjusted Cox model

Nc1ccn([C@@H]2O[C@H](CO)[C@@H](O)[C@@H]2O)c(=O)n1 [HDAC, cytarabine]
3-year EFS [1]: 0.6070
3-year OS [1]: 0.6946
4-year EFS [1]: 0.5942
4-year OS [1]: 0.6875
5-year EFS [1]: 0.5872
5-year OS [1]: 0.6875
3-year EFS [2]: 0.6247
3-year OS [2]: 0.7260
4-year EFS [2]: 0.6122
4-year OS [2]: 0.7194
5-year EFS [2]: 0.6053
5-year OS [2]: 0.7194
3-year EFS [3]: 0.6418
3-year OS [3]: 0.7550
4-year EFS [3]: 0.6297
4-year OS [3]: 0.7489
5-year EFS [3]: 0.6231
5-year OS [3]: 0.7489
3-year EFS [4]: 0.6585
3-year OS [4]: 0.7816
4-year EFS [4]: 0.6468
4-year OS [4]: 0.7760
5-year EFS [4]: 0.6403
5-year OS [4]: 0.7760
3-year EFS [5]: 0.6747
3-year OS [5]: 0.8058
4-year EFS [5]: 0.6633
4-year OS [5]: 0.8007
5-year EFS [5]: 0.6570
5-year OS [5]: 0.8007
3-year EFS [6]: 0.6903
3-year OS [6]: 0.8278
4-year EFS [6]: 0.6793
4-year OS [6]: 0.8232
5-year EFS [6]: 0.6732
5-year OS [6]: 0.8232
3-year EFS [7]: 0.5889
3-year OS [7]: 0.6609
4-year EFS [7]: 0.5758
4-year OS [7]: 0.6533
5-year EFS [7]: 0.5686
5-year OS [7]: 0.6533
3-year EFS [8]: 0.5703
3-year OS [8]: 0.6251
4-year EFS [8]: 0.5569
4-year OS [8]: 0.6170
5-year EFS [8]: 0.5496
5-year OS [8]: 0.6170
3-year EFS [9]: 0.5513
3-year OS [9]: 0.5873
4-year EFS [9]: 0.5377
4-year OS [9]: 0.5788
5-year EFS [9]: 0.5302
5-year OS [9]: 0.5788
3-year EFS [10]: 0.5123
3-year OS [10]: 0.5073
4-year EFS [10]: 0.4983
4-year OS [10]: 0.4983
5-year EFS [10]: 0.4906
5-year OS [10]: 0.4983
Event-free Survival 5 years (High ACS10 score group): 0.631 ± 0.074
Overall Survival 5 years (High ACS10 score group): 0.743 ± 0.067
Event-free Survival 5 years (Low ACS10 score group): 0.548 ± 0.089
Overall Survival 5 years (Low ACS10 score group): 0.634 ± 0.088
5 year EFS [11]: 55%
five-year OS [11]: 63%
MRDIND1 Negative (<0.1%) [12]: 43^+
MRDIND1 Positive (>=0.1%) [12]: 28^+
3-year EFS, model estimate [13]: 69.0%
3-year OS, model estimate [13]: 82.8%
3-year EFS, model estimate [14]: 51.2%
3-year OS, model estimate [14]: 50.7%
Event-free Survival 5 years (probability, whole arm): 0.597 ± 0.0569
Overall Survival 5 years (probability, whole arm): 0.699 ± 0.0537
EFS HR, low-ACS10 vs high-ACS10 score (within arm, AML02): 1.28
OS HR, low-ACS10 vs high-ACS10 score (within arm, AML02): 1.56
EFS HR for each one-point increase in ACS10 (within arm, risk-adjusted Cox model, AML02): 0.92
